# Results from ChEMBL document CHEMBL4308841, “Synthesis, in vitro antiproliferative activity, and kinase inhibitory effects of pyrazole-containing diarylureas and diarylamides” (Eur J Med Chem, 2018).
# Legend:
# COLO 205 [1] = assay: Growth inhibition of human COLO205 cells assessed as cell growth at 10 uM incubated for 48 hrs by sulforhodamine B assay relative to control; format: functional; details: COLO 205, 48 h, read-out: Activity
# SW-620 = assay: Growth inhibition of human SW620 cells assessed as cell growth at 10 uM incubated for 48 hrs by sulforhodamine B assay relative to control; format: functional; details: SW-620, 48 h, read-out: Activity
# HCC 2998 = assay: Growth inhibition of human HCC2998 cells assessed as cell growth at 10 uM incubated for 48 hrs by sulforhodamine B assay relative to control; format: functional; details: HCC 2998, 48 h, read-out: Activity
# SF-268 = assay: Growth inhibition of human SF268 cells assessed as cell growth at 10 uM incubated for 48 hrs by sulforhodamine B assay relative to control; format: functional; details: SF-268, 48 h, read-out: Activity
# KM12 = assay: Growth inhibition of human KM12 cells incubated for 48 hrs by sulforhodamine B assay; format: functional, cell-based; details: KM12, 48 h
# MCF7 = assay: Growth inhibition of human MCF7 cells assessed as cell growth at 10 uM incubated for 48 hrs by sulforhodamine B assay relative to control; format: functional; details: MCF7, 48 h, read-out: Activity
# LOX IMVI [2] = assay: Growth inhibition of human LOXIMVI cells assessed as cell growth at 10 uM incubated for 48 hrs by sulforhodamine B assay relative to control; format: functional; details: read-out: Activity
# NCI-H522 = assay: Growth inhibition of human NCI-H522 cells assessed as cell growth at 1 uM incubated for 48 hrs by sulforhodamine B assay relative to control; format: functional; details: NCI-H522, 48 h, read-out: Activity
# SN12C = assay: Growth inhibition of human SN12C cells assessed as cell growth at 10 uM incubated for 48 hrs by sulforhodamine B assay relative to control; format: functional; details: read-out: Activity
# SR = assay: Growth inhibition of human SR cells assessed as cell growth at 1 uM incubated for 48 hrs by sulforhodamine B assay relative to control; format: functional; details: read-out: Activity
# HCT-15 = assay: Growth inhibition of human HCT15 cells assessed as cell growth at 10 uM incubated for 48 hrs by sulforhodamine B assay relative to control; format: functional; details: HCT-15, 48 h, read-out: Activity
# COLO 205 [3] = assay: Growth inhibition of human COLO205 cells assessed as cell growth at 0.1 uM incubated for 48 hrs by sulforhodamine B assay relative to control; format: functional; details: COLO 205, 48 h, read-out: Activity
# OVCAR-8 = assay: Growth inhibition of human OVCAR8 cells assessed as cell growth at 10 uM incubated for 48 hrs by sulforhodamine B assay relative to control; format: functional; details: OVCAR-8, 48 h, read-out: Activity
# NCI-H23 = assay: Growth inhibition of human NCI-H23 cells assessed as cell growth at 10 uM incubated for 48 hrs by sulforhodamine B assay relative to control; format: functional; details: NCI-H23, 48 h, read-out: Activity
# NCI-H460 = assay: Growth inhibition of human NCI-H460 cells assessed as cell growth at 10 uM incubated for 48 hrs by sulforhodamine B assay relative to control; format: functional; details: NCI-H460, 48 h, read-out: Activity
# LOX IMVI [4] = assay: Growth inhibition of human LOXIMVI cells assessed as cell growth at 0.1 uM incubated for 48 hrs by sulforhodamine B assay relative to control; format: functional; details: read-out: Activity
# Malme-3M = assay: Growth inhibition of human MALME-3M cells assessed as cell growth at 10 uM incubated for 48 hrs by sulforhodamine B assay relative to control; format: functional; details: read-out: Activity
# SNB-19 = assay: Growth inhibition of human SNB19 cells assessed as cell growth at 1 uM incubated for 48 hrs by sulforhodamine B assay relative to control; format: functional; details: SNB-19, 48 h, read-out: Activity
# M14 = assay: Growth inhibition of human M14 cells assessed as cell growth at 10 uM incubated for 48 hrs by sulforhodamine B assay relative to control; format: functional; details: M14, 48 h, read-out: Activity
# Hs-578T = assay: Growth inhibition of human Hs578T cells assessed as cell growth at 10 uM incubated for 48 hrs by sulforhodamine B assay relative to control; format: functional; details: read-out: Activity
# HL-60(TB) = assay: Growth inhibition of human HL-60(TB) cells assessed as cell growth at 0.1 uM incubated for 48 hrs by sulforhodamine B assay relative to control; format: functional; details: HL-60, 48 h, read-out: Activity
# UO-31 = assay: Growth inhibition of human UO31 cells assessed as cell growth at 10 uM incubated for 48 hrs by sulforhodamine B assay relative to control; format: functional; details: UO-31, 48 h, read-out: Activity
# CCRF-CEM = assay: Growth inhibition of human CCRF-CEM cells incubated for 48 hrs by sulforhodamine B assay; format: functional, cell-based
# CAKI-1 = assay: Growth inhibition of human Caki1 cells assessed as cell growth at 10 uM incubated for 48 hrs by sulforhodamine B assay relative to control; format: functional; details: CAKI-1, 48 h, read-out: Activity
# RXF 393 = assay: Growth inhibition of human RXF393 cells assessed as cell growth at 10 uM incubated for 48 hrs by sulforhodamine B assay relative to control; format: functional; details: RXF 393, 48 h, read-out: Activity
# MDA-MB-468 = assay: Growth inhibition of human MDA-MB-468 cells incubated for 48 hrs by sulforhodamine B assay; format: functional, cell-based; details: MDA-MB-468, 48 h
# DU-145 = assay: Growth inhibition of human DU145 cells assessed as cell growth at 1 uM incubated for 48 hrs by sulforhodamine B assay relative to control; format: functional; details: DU-145, 48 h, read-out: Activity
# MDA-MB-435 = assay: Growth inhibition of human MDA-MB-435 cells assessed as cell growth at 10 uM incubated for 48 hrs by sulforhodamine B assay relative to control; format: functional; details: MDA-MB-435, 48 h, read-out: Activity
# 786-0 = assay: Growth inhibition of human 786-0 cells assessed as cell growth at 10 uM incubated for 48 hrs by sulforhodamine B assay relative to control; format: functional; details: 786-0, 48 h, read-out: Activity
# OVCAR-4 = assay: Growth inhibition of human OVCAR4 cells assessed as cell growth at 10 uM incubated for 48 hrs by sulforhodamine B assay relative to control; format: functional; details: OVCAR-4, 48 h, read-out: Activity
# SK-MEL-5 [5] = assay: Growth inhibition of human SK-MEL-5 cells assessed as cell growth at 10 uM incubated for 48 hrs by sulforhodamine B assay relative to control; format: functional; details: SK-MEL-5, 48 h, read-out: Activity
# SK-MEL-5 [6] = assay: Growth inhibition of human SK-MEL-5 cells assessed as cell growth at 100 uM incubated for 48 hrs by sulforhodamine B assay relative to control; format: functional; details: SK-MEL-5, 48 h, read-out: Activity
# [7] = read-out: LC50 (the source's name)
# [8] = read-out: pLC50 (the source's name) (converted)
compound,measurement,setting,value
O=C(Nc1cccc(-n2cc(-c3ccncc3)c(-c3cc(O)cc(Cl)c3)n2)c1)c1ccc(N2CCOCC2)c(C(F)(F)F)c1,growth at 10 µM,COLO 205 [1],80.5%
same,growth at 10 µM,SW-620,-26.2%
same,growth at 10 µM,HCC 2998,-3.65%
same,growth at 10 µM,SF-268,52.7%
same,GI50,KM12; read-out: GI50,1.21 µM
same,CC50,KM12; [7],> 100 µM
same,TGI,KM12; read-out: TGI,> 100 µM
same,GI50,KM12; read-out: pGI50 (converted),1.2 µM
same,CC50,KM12; [8],> 100 µM
same,TGI,KM12; read-out: pTGI (converted),> 100 µM
same,growth at 10 µM,MCF7,29.7%
same,growth at 10 µM,LOX IMVI [2],-48.7%
same,growth at 1 µM,NCI-H522,40%
same,growth at 10 µM,SN12C,46.4%
same,growth at 1 µM,SR,9%
same,growth at 10 µM,HCT-15,6.25%
same,growth at 0.1 µM,COLO 205 [3],104%
same,growth at 10 µM,OVCAR-8,22.7%
same,growth at 10 µM,NCI-H23,15.4%
same,growth at 10 µM,NCI-H460,-26.1%
same,growth at 0.1 µM,LOX IMVI [4],102%
same,growth at 10 µM,Malme-3M,-26.9%
same,growth at 1 µM,SNB-19,90%
same,growth at 10 µM,M14,-20.7%
same,growth at 10 µM,Hs-578T,17.9%
same,growth at 0.1 µM,HL-60(TB),114%
same,growth at 10 µM,UO-31,3.98%
same,GI50,CCRF-CEM; read-out: GI50,0.543 µM
same,CC50,CCRF-CEM; [7],> 100 µM
same,TGI,CCRF-CEM; read-out: TGI,> 100 µM
same,GI50,CCRF-CEM; read-out: pGI50 (converted),0.562 µM
same,CC50,CCRF-CEM; [8],> 100 µM
same,TGI,CCRF-CEM; read-out: pTGI (converted),> 100 µM
same,growth at 10 µM,CAKI-1,14.8%
same,growth at 10 µM,RXF 393,-45.6%
same,IC50,MDA-MB-468,3.42 µM
same,GI50,MDA-MB-468; read-out: GI50,3.42 µM
same,CC50,MDA-MB-468; [7],> 100 µM
same,TGI,MDA-MB-468; read-out: TGI,43.3 µM
same,GI50,MDA-MB-468; read-out: pGI50 (converted),3.39 µM
same,CC50,MDA-MB-468; [8],> 100 µM
same,TGI,MDA-MB-468; read-out: pTGI (converted),43.7 µM
same,growth at 1 µM,DU-145,92%
same,growth at 10 µM,MDA-MB-435,23%
same,growth at 10 µM,786-0,36.6%
same,growth at 10 µM,OVCAR-4,77.1%
same,growth at 10 µM,SK-MEL-5 [5],32.2%
same,growth at 100 µM,SK-MEL-5 [6],-72%
